This is an account of results in US20060094003A1, “Acetylcholine-dependent current as a novel ionic target for atrial fibrillation” (priority 2004, published 2006).

The target in one assay is T1, Kir2.1 channels (Homo sapiens, UniProt P63252).
T1 sequence (P63252 1-427): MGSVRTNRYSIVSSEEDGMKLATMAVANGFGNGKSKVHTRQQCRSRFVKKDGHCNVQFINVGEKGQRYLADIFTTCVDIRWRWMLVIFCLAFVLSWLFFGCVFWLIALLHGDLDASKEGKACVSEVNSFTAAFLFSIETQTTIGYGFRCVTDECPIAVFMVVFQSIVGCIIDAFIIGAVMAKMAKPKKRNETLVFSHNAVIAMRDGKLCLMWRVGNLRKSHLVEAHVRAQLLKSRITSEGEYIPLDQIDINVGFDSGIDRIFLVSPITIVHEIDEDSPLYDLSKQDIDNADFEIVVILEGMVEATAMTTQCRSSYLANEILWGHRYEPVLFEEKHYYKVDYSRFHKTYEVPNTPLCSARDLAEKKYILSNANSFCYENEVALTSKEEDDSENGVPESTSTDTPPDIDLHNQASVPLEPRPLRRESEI
The following applies: at micromolar concentrations; Jin & Lu, 1999; cited from earlier work.

The subject of a further assay is AT-remodeled canine LA. Nature of the assay: Action potential duration in AT-remodeled canine LA preparations. The following applies: for effect on action potential duration (in words): AT-remodeled canine LA. On the procedure:
(§1) Adult dogs were divided into control and AT groups. AT dogs were initially anesthetized with diazepam (0.25 mg/kg IV), ketamine (5.0 mg/kg IV), and halothane (1% to 2%) for transvenous insertion of right ventricular (RV) and right atrial (RA) unipolar pacing leads connected to ventricular and atrial pacemakers implanted in the neck. Pacing began 24 hours after pacemaker implantation. AV block was created by radiofrequency catheter ablation and the RV demand-pacemaker was programmed to 80 bpm. The RA was then tachypaced (400 bpm) for 7-13 days.
On study days, dogs were anesthetized with pentobarbital (30 mg·kg^−1 I.V.) and artificially ventilated. Hearts and adjacent lung tissue were excised via a left thoracotomy and immersed in oxygenated Tyrode solution. For cell isolation, the proximal circumflex coronary artery was cannulated and distal ends of PV myocardial sleeves were marked with silk thread prior to enzyme perfusion with collagenase (100 U mL^−1, Worthington, type II), to facilitate identification after enzymatic digestion. PVs were well-perfused and single cardiomyocytes were isolated from all PVs. After isolation, cells were stored at 4° C. and studied within 12 hours.
For standard-microelectrode experiments and atrial-tachyarrhythmia induction, intact tissue preparations including the LA and adjacent PVs were mounted in a Plexiglas chamber and perfused via the left circumflex coronary artery with oxygenated Kreb's solution at 36±0.5° C. Fine-tipped microelectrodes (resistance 15-20 MΩ when filled with 3-mol/L KCL) coupled to a high-input impedance amplifier were used to record Action Potentials.
Table 1 quantifies this increase in duration by presenting the time required for action potentials in 8 dogs to reach 90%, 50% and 25% repolarization. Results are averages over 24 and 23 action potentials respectively for the pre-TQ data and the post-TQ data.

For a further assay, the system named is IK1. The following applies: at concentrations of 8 to 30 nM; cited from earlier work.
The next assay deals with IKH. Nature of the assay: Patch-clamp of TQ-sensitive IKH component in LA cardiomyocytes of control and AT dogs. Format: cell-based, canine. The following applies: at −110 mV. Here is the method:
Briefly, dogs were subjected to 7-13 days of AT at about 400 beats per minute (bpm). LA preparations were then coronary-perfused and studied intact in vitro or subjected to cardiomyocyte isolation. IKH was studied with patch clamp.
as §1
On study days, dogs were anesthetized with pentobarbital (30 mg·kg^−1 I.V.) and artificially ventilated. Hearts and adjacent lung tissue were excised via a left thoracotomy and immersed in oxygenated Tyrode solution. […]
For single cardiomyocytes, currents were recorded with whole-cell patch-clamp at 36±0.5° C. […] To control for cell-size variability, currents are expressed as densities (pA/pF). […]

Turning to tertiapin-Q, the “effect on Kir2.1 channels (in words)” value at Kir2.1 channels is “minimal effects”. This substance also registered an APD25 in the assay on AT-remodeled canine LA (2 Hz, AT-remodeled preparations, post-TQ, pre-TQ 15.9 ± 1.7) of 39.0 ± 2.5 ms. For the same substance, in the assay with AT-remodeled canine LA (2 Hz, AT-remodeled preparations, post-TQ, pre-TQ 44.4 ± 2.3), the APD50 came to 87.4 ± 2.7 ms. Further, the APD90 in the assay with AT-remodeled canine LA (2 Hz, AT-remodeled preparations, post-TQ, pre-TQ 100.1 ± 2.6) is on record as 162.2 ± 4.2 ms. The “effect on action potential duration (in words)” value in the assay on AT-remodeled canine LA was “greatly increases”; in the assay on AT-remodeled canine LA (listed as TQ), “prominently increased”. The “effect on IK1 (in words)” value with IK1 is “no effect”. In addition, the entries for the “100 nM TQ-sensitive component of IKH” value in the assay on IKH (AT dogs) and in the assay with IKH (control dogs) were −2.8±0.5 pA/pF and −1.7±0.5 pA/pF, respectively.
